Laboratory results taken from patent publication US10392383B2, “3-(1H-benzo[d]imidazol-2-yl)-1H-pyrazolo[4,3-b]pyridines and therapeutic uses thereof” (Samumed, LLC, priority 2015, dated 2019).

Experiments:
Type in all cases: cell-based
[1] = tested on: Wnt activity (Sp5-Luc reporter, Wnt-responsive promoter) in SW480 colon carcinoma cells; test: Wnt activity screening assay: Sp5-Luc reporter gene assay in SW480 cells; conditions: Homo sapiens; for inhibition at 10 µM: read-out: percent inhibition at 10 μM (given for EC50 of >10 μM); for EC50: overnight incubation, 10-point curve starting from 10 μM
Summary of the method: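 Luminescence read-out (BrightGlo) from stable Sp5-Luc SW480 cells, normalized to DMSO-only wells. Cells were treated overnight at 37° C in 1% FBS medium across a 1:3, 10-point series starting at 10 μM. EC50 from variable-slope four-parameter regression; percent inhibition at 10 μM given where EC50 >10 μM.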

SW480 colon cancer cells = test: Cell viability assay (CellTiter-Blue) in SW480 cells; conditions: Homo sapiens, 96 h, four days; for inhibition at 10 µM: read-out: percent inhibition at 10 μM (given for EC50 of >10 μM); for EC50: CellTiter-Blue, 10 μM to 0.0045 μM
Summary of the method: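 Resazurin reduction (Ex 560/Em 590 nm, ~3 h reagent incubation) served as the viability read-out after SW480 cells were treated for four days at 37 °C. Doses ran from 10 μM down to 0.0045 μM in eight 1:3 steps. Curves fitted non-linearly for EC50, else % inhibition at 10 μM reported.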

[2] = tested on: primary human fibroblasts derived from IPF patients (LL29 cells) treated with TGF-β1; test: Inhibition of the fibrotic process: αSMA staining in TGF-β1-treated LL29 fibroblasts; conditions: Fibroblast; for inhibition at 10 µM: LL29 fibroblasts treated with TGF-β1, Table 4, read-out: percent inhibition at 10 μM (given in parentheses for EC50 >10 μM); for EC50: 96 h, LL29 fibroblasts treated with TGF-β1 (20 ng/mL), 4 days, Table 4
Summary of the method: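 EC50 from triplicate-well dose-response fits of % αSMA-positive cells, normalized to TGF-β1-stimulated DMSO controls, with SYTOX-positive dead cells excluded. LL29 IPF fibroblasts received compound at 10 μM–1.87 nM (0.1% DMSO) plus 20 ng/mL TGF-β1 for 4 days in 1% FBS medium; above 10 μM, % inhibition at 10 μM reported.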

`c1cc(-c2ccncc2)c2nc(-c3n[nH]c4ccc(-c5cncc(OC6CCNCC6)c5)nc34)[nH]c2c1` [Compound 576, 5-(5-(Piperidin-4-yloxy)pyridin-3-yl)-3-(4-(pyridin-4-yl)-1H-benzo[d]imidazol-2-yl)-1H-pyrazolo[4,3-b]pyridine] was tested, and the inhibition at 10 µM [1] was 25.7%, the EC50 [1] was > 10 µM and the inhibition at 10 µM (SW480 colon cancer cells) was 9%. For the same molecule, the EC50 (SW480 colon cancer cells) was > 10 µM, the inhibition at 10 µM [2] was 9.2% and the EC50 [2] was > 10 µM.

For `c1ccc(COc2cncc(-c3ccc4[nH]nc(-c5nc6c(-c7ccncc7)cccc6[nH]5)c4n3)c2)cc1` [Compound 582, 5-(5-(Benzyloxy)pyridin-3-yl)-3-(4-(pyridin-4-yl)-1H-benzo[d]imidazol-2-yl)-1H-pyrazolo[4,3-b]pyridine], the inhibition at 10 µM [1] was 39.1%, the EC50 [1] was > 10 µM and the inhibition at 10 µM (SW480 colon cancer cells) was 28.5%. For the same molecule, the EC50 (SW480 colon cancer cells) was > 10 µM and the EC50 [2] was 1.42 µM.

In the case of `c1cc(-c2ccncc2)c2nc(-c3n[nH]c4ccc(-c5cnccn5)nc34)[nH]c2c1` [Compound 584, 5-(Pyrazin-2-yl)-3-(4-(pyridin-4-yl)-1H-benzo[d]imidazol-2-yl)-1H-pyrazolo[4,3-b]pyridine], the inhibition at 10 µM [1] is reported as 7.4%, the EC50 [1] is reported as > 10 µM and the inhibition at 10 µM (SW480 colon cancer cells) is reported as 9.6%. For the same molecule, the EC50 (SW480 colon cancer cells) was > 10 µM, the inhibition at 10 µM [2] was 10% and the EC50 [2] was > 10 µM.

With `O=C(CC1CCNCC1)Nc1cncc(-c2ccc3[nH]nc(-c4nc5c(-c6ccccn6)cccc5[nH]4)c3n2)c1` [Compound 593, 2-(Piperidin-4-yl)-N-(5-(3-(4-(pyridin-2-yl)-1H-benzo[d]imidazol-2-yl)-1H-pyrazolo[4,3-b]pyridin-5-yl)pyridin-3-yl)acetamide] the inhibition at 10 µM [1] was 26.6%, the EC50 [1] was > 10 µM and the inhibition at 10 µM (SW480 colon cancer cells) was 13.6%. The EC50 (SW480 colon cancer cells) was > 10 µM and the EC50 [2] was 1.37 µM.

For `Cc1cn(-c2cccc3[nH]c(-c4n[nH]c5ccc(C6=CCNCC6)nc45)nc23)cn1` [Compound 618, 3-(4-(4-Methyl-1H-imidazol-1-yl)-1H-benzo[d]imidazol-2-yl)-5-(1,2,3,6-tetrahydropyridin-4-yl)-1H-pyrazolo[4,3-b]pyridine], the inhibition at 10 µM [1] was 1.2%, the EC50 [1] was > 10 µM and the inhibition at 10 µM (SW480 colon cancer cells) was 7.4%. For the same molecule, the EC50 (SW480 colon cancer cells) was > 10 µM, the inhibition at 10 µM [2] was 7.7% and the EC50 [2] was > 10 µM.

`Cc1cn(-c2cccc3[nH]c(-c4n[nH]c5ccc(-c6cncc(N7CC(N)C7)n6)nc45)nc23)cn1` [Compound 622, 1-(6-(3-(4-(4-Methyl-1H-imidazol-1-yl)-1H-benzo[d]imidazol-2-yl)-1H-pyrazolo[4,3-b]pyridin-5-yl)pyrazin-2-yl)azetidin-3-amine] was tested, and the inhibition at 10 µM [1] was 12.6%, the EC50 [1] was > 10 µM and the inhibition at 10 µM (SW480 colon cancer cells) was 17.8%. The EC50 (SW480 colon cancer cells) was > 10 µM, the inhibition at 10 µM [2] was 0% and the EC50 [2] was > 10 µM.

For `Cc1cn(-c2cccc3[nH]c(-c4n[nH]c5ccc(-c6cncc(OCCN(C)C)c6)nc45)nc23)cn1` [Compound 627, N,N-Dimethyl-2-((5-(3-(4-(4-methyl-1H-imidazol-1-yl)-1H-benzo[d]imidazol-2-yl)-1H-pyrazolo[4,3-b]pyridin-5-yl)pyridin-3-yl)oxy)ethan-1-amine], the inhibition at 10 µM [1] was 38.1%, the EC50 [1] was > 10 µM and the inhibition at 10 µM (SW480 colon cancer cells) was 14.1%. For the same molecule, the EC50 (SW480 colon cancer cells) was > 10 µM and the EC50 [2] was 6.76 µM.

In the case of `CN1CCN(c2cccc3[nH]c(-c4n[nH]c5ccc(-c6cnccn6)nc45)nc23)CC1` [Compound 648, 3-(4-(4-Methylpiperazin-1-yl)-1H-benzo[d]imidazol-2-yl)-5-(pyrazin-2-yl)-1H-pyrazolo[4,3-b]pyridine], the inhibition at 10 µM [1] is reported as 37.9%, the EC50 [1] is reported as > 10 µM and the EC50 (SW480 colon cancer cells) is reported as 9.1 µM. The inhibition at 10 µM [2] was 0% and the EC50 [2] was > 10 µM.

With `c1ccc2[nH]c(-c3n[nH]c4ccc(-c5cn[nH]c5)nc34)nc2c1` [Compound 651, 3-(1H-Benzo[d]imidazol-2-yl)-5-(1H-pyrazol-4-yl)-1H-pyrazolo[4,3-b]pyridine] the inhibition at 10 µM [1] was 40.2%, the EC50 [1] was > 10 µM and the inhibition at 10 µM (SW480 colon cancer cells) was 33.9%. For the same molecule, the EC50 (SW480 colon cancer cells) was > 10 µM, the inhibition at 10 µM [2] was 0% and the EC50 [2] was > 10 µM.

In the case of `c1ccc2[nH]c(-c3n[nH]c4ccc(-c5cncc(OC6CCNCC6)c5)nc34)nc2c1` [Compound 656, 3-(1H-Benzo[d]imidazol-2-yl)-5-(5-(piperidin-4-yloxy)pyridin-3-yl)-1H-pyrazolo[4,3-b]pyridine], the inhibition at 10 µM [1] is reported as 4.9%, the EC50 [1] is reported as > 10 µM and the inhibition at 10 µM (SW480 colon cancer cells) is reported as 20.8%. For the same molecule, the EC50 (SW480 colon cancer cells) was > 10 µM, the inhibition at 10 µM [2] was 45.9% and the EC50 [2] was > 10 µM.

For `Oc1cncc(-c2ccc3[nH]nc(-c4nc5ccccc5[nH]4)c3n2)c1` [Compound 661, 5-(3-(1H-Benzo[d]imidazol-2-yl)-1H-pyrazolo[4,3-b]pyridin-5-yl)pyridin-3-ol], the inhibition at 10 µM [1] was 32.4%, the EC50 [1] was > 10 µM and the inhibition at 10 µM (SW480 colon cancer cells) was 29.2%. The EC50 (SW480 colon cancer cells) was > 10 µM, the inhibition at 10 µM [2] was 30.3% and the EC50 [2] was > 10 µM.

With `O=C(CC1CCNCC1)Nc1cncc(-c2ccc3[nH]nc(-c4nc5c(-c6ccsc6)cccc5[nH]4)c3n2)c1` [Compound 673, 2-(Piperidin-4-yl)-N-(5-(3-(4-(thiophen-3-yl)-1H-benzo[d]imidazol-2-yl)-1H-pyrazolo[4,3-b]pyridin-5-yl)pyridin-3-yl)acetamide] the inhibition at 10 µM [1] was 14.9%, the EC50 [1] was > 10 µM and the inhibition at 10 µM (SW480 colon cancer cells) was 4.3%. For the same molecule, the EC50 (SW480 colon cancer cells) was > 10 µM and the EC50 [2] was 2.78 µM.

`Cc1ncc(-c2ccc3[nH]nc(-c4nc5c(-c6ccoc6)cccc5[nH]4)c3n2)n1C` [Compound 685, 5-(1,2-Dimethyl-1H-imidazol-5-yl)-3-(4-(furan-3-yl)-1H-benzo[d]imidazol-2-yl)-1H-pyrazolo[4,3-b]pyridine] was tested, and the EC50 [1] was 0.257 µM, the EC50 (SW480 colon cancer cells) was 0.635 µM and the EC50 [2] was 5.04 µM.

In the case of `c1cc(-c2ccoc2)c2nc(-c3n[nH]c4ccc(-c5cncc(OCCN6CCCC6)c5)nc34)[nH]c2c1` [Compound 690, 3-(4-(Furan-3-yl)-1H-benzo[d]imidazol-2-yl)-5-(5-(2-(pyrrolidin-1-yl)ethoxy)pyridin-3-yl)-1H-pyrazolo[4,3-b]pyridine], the EC50 [1] is reported as 4.21 µM, the EC50 (SW480 colon cancer cells) is reported as 3.85 µM and the EC50 [2] is reported as 2.44 µM.

Molecule `COc1cncc(-c2ccc3[nH]nc(-c4nc5c(-c6ccoc6)cccc5[nH]4)c3n2)c1` [Compound 692, 3-(4-(Furan-3-yl)-1H-benzo[d]imidazol-2-yl)-5-(5-methoxypyridin-3-yl)-1H-pyrazolo[4,3-b]pyridine] has an EC50 [1] of 1.37 µM, an EC50 (SW480 colon cancer cells) of 2.1 µM and an EC50 [2] of 1.41 µM.

For `Cn1cc(-c2ccc3[nH]nc(-c4nc5c(-c6cccs6)cccc5[nH]4)c3n2)cn1` [Compound 700, 5-(1-Methyl-1H-pyrazol-4-yl)-3-(4-(thiophen-2-yl)-1H-benzo[d]imidazol-2-yl)-1H-pyrazolo[4,3-b]pyridine], the inhibition at 10 µM [1] was 37.8%, the EC50 [1] was > 10 µM and the inhibition at 10 µM (SW480 colon cancer cells) was 27.3%. The EC50 (SW480 colon cancer cells) was > 10 µM and the EC50 [2] was 0.391 µM.

For `CN(C)CCOc1cncc(-c2ccc3[nH]nc(-c4nc5c(-c6cccs6)cccc5[nH]4)c3n2)c1` [Compound 707, N,N-Dimethyl-2-((5-(3-(4-(thiophen-2-yl)-1H-benzo[d]imidazol-2-yl)-1H-pyrazolo[4,3-b]pyridin-5-yl)pyridin-3-yl)oxy)ethan-1-amine], the EC50 [1] was 4.19 µM, the EC50 (SW480 colon cancer cells) was 1.54 µM and the EC50 [2] was 1.35 µM.

`Cc1ccc(-c2cccc3[nH]c(-c4n[nH]c5ccc(C6=CCNCC6)nc45)nc23)s1` [Compound 730, 3-(4-(5-Methylthiophen-2-yl)-1H-benzo[d]imidazol-2-yl)-5-(1,2,3,6-tetrahydropyridin-4-yl)-1H-pyrazolo[4,3-b]pyridine] showed an EC50 [1] of 1.01 µM, an EC50 (SW480 colon cancer cells) of 0.642 µM and an EC50 [2] of 1.34 µM.
